From US20140193436A1, “EXTRACELLULAR TARGETED DRUG CONJUGATES” (priority 2011, published 2014) come the findings set out here.

Assay [1] relates to LOX Melanoma cells (LOX IMVI). In words: In vitro cytotoxicity assessment (CellTiter-Glo cell viability), LOX. It is filed as cell-based, human. The text has this: (§1) Cells and culture conditions: Cell lines H460, HT29, A549, PANC-1, MB231, FaDu, H69 and H929 were obtained from the American Type Culture Collection (ATCC), Manassas, Va. The malignant melanoma cell line LOX IMVI was obtained from the DCTD Tumor Repository, National Cancer Institute, Frederick, Md., The cell lines were maintained in the recommended media formulations and subcultured every 3 to 4 days. To activate expression of certain targets to which the drug moiety bind and/or to form Na,K-ATPase complexes with certain proteins, cells can be cultured in recommended media plus additives such as phorbol esters, various growth factors and cytokines such as VEGF, fibroblast growth factors, human growth factors, interleukins, and tumor necrosis factors. In addition, cells can be cocultured with other cells like human fibroblasts. Additionally, microtiter plates can be coated with various proteins like fibrinogen.
(§2) Cells were incubated in the presence of test compound for 72 hr prior to cell viability testing.
(In general: Cellular ATP, detected with luciferase, serves as a proxy for viable cell number.)

The next assay deals with PANC1 Pancreas cells. In words: In vitro cytotoxicity assessment (CellTiter-Glo cell viability), PANC1. The class given is cell-based, human.
From the text: as §1, §2

The test system of another assay is MB231 Breast cells. In words: In vitro cytotoxicity assessment (CellTiter-Glo cell viability), MB231. It is filed as cell-based, human.
From the text: as §1, §2

The subject of another assay is FaDu Head/neck cells. In words: In vitro cytotoxicity assessment (CellTiter-Glo cell viability), FaDu. The class given is cell-based, human.
From the text: as §1, §2

The subject of the next assay is H460 LCLC cells. In words: In vitro cytotoxicity assessment (CellTiter-Glo cell viability), H460. It is filed as cell-based, human.
From the text: as §1, §2

In another assay the test system is H69 SCLC cells. In words: In vitro cytotoxicity assessment (CellTiter-Glo cell viability), H69. It is filed as cell-based, human.
From the text: as §1, §2

For the next assay, the system named is HT29 Colon cells. In words: In vitro cytotoxicity assessment (CellTiter-Glo cell viability), HT29. It is filed as cell-based, human.
From the text: as §1, §2

The next assay relates to H929 Myeloma cells. In words: In vitro cytotoxicity assessment (CellTiter-Glo cell viability), H929. The class given is cell-based, human.
From the text: as §1, §2

The next assay concerns A549 NSCLC cells. In words: In vitro cytotoxicity assessment (CellTiter-Glo cell viability), A549. It is filed as cell-based, human.
From the text: as §1, §2

In assay [2] the test system is HT-29 human colon cancer xenograft. In words: HT-29 human colon cancer xenograft model. It is filed as in vivo, Hsd:Athymic Nude-Foxn1nu mice. The settings on record: 15 mg/kg qd×5 (positive control); compared to vehicle. As for the experimental part:
Briefly, to establish a human colorectal adenocarcinoma disease model, tumors from HT-29 xenograft bearing mice were minced and 8 mm^3 fragments were transplanted s.c. by trocar needle into the left flank of Hsd:Athymic Nude-Foxn1^nu mice (Harlan, Indianapolis, Ind.). Therapy with EDC2.2 was then initiated when the tumor volume in groups of 7 animals averaged ˜100 mm^3. Treatment using vehicle control and either 1 or 5 mg/kg EDC2.2 was administered i.v. using the schedule of one injection every 3 days with 4 total injected doses (q3d×4). 15 mg/kg paclitaxel dosed at qd×5 served as a positive control treatment group. Tumor volumes were measured for each group using calibrated vernier calipers and plotted against first day of tumor implant for 69 days post-implant and 41 days post-initial dose. […] Therefore, EDCs that employ targeting moieties to CD147 conjugated to agents that act on the Na,K-ATPase should be generally useful in treating colon cancers.
For orientation: In xenograft studies the graft and the host belong to different species.

Read-outs that look alike come from different tables or passages of the source.

In the case of `C[C@]12CC[C@H](OC3OC[C@H](N)[C@@H](O)[C@@H]3O)C=C1CCC1C2CC[C@]2(C)[C@@H](c3ccc(=O)oc3)CC[C@]12O` (stereo partly shown) [CEN09-106], the EC50 (in general, the concentration giving half of the maximal effect) in assay [1] (LOX Melanoma, 72 hr with test compound, read-out: EC50) was determined as 2.5 nM; with PANC1 Pancreas cells (PANC1 Pancreas, 72 hr with test compound, read-out: EC50) it was 1.1 nM; in the assay on MB231 Breast cells (MB231 Breast, 72 hr with test compound, read-out: EC50), 3.3 nM; with FaDu Head/neck cells (FaDu Head/neck, 72 hr with test compound, read-out: EC50) it was 3.1 nM; in the assay with H460 LCLC cells (H460 LCLC, 72 hr with test compound, read-out: EC50), 1.4 nM; in the assay on H69 SCLC cells (H69 SCLC, 72 hr with test compound, read-out: EC50), 1 nM. Further, the EC50 was 2.9 nM with HT29 Colon cells (HT29 Colon, 72 hr with test compound, read-out: EC50); 3.1 nM with H929 Myeloma cells (H929 Myeloma, 72 hr with test compound, read-out: EC50); 0.66 nM in the assay on A549 NSCLC cells (A549 NSCLC, 72 hr with test compound, read-out: EC50).
In the case of `C[C@]12CC[C@H](O[C@H]3OC[C@H](NC(=O)CCOCCOCCOCCOCCOCCOCCOCCOCCOCCOCCOCCOCCOCCOCCOCCOCCOCCOCCOCCOCCOCCOCCOCCOCCNC(=O)CCN4C(=O)C=CC4=O)[C@H](O)C3O)C=C1CCC1C2CC[C@]2(C)[C@@H](c3ccc(=O)oc3)CC[C@]12O` (stereo partly shown) [CEN010-105], the EC50 amounted to 71 nM in assay [1] (Homo sapiens, LOX, 72 h); 27.1 nM in the assay with PANC1 Pancreas cells (Homo sapiens, PANC-1, 72 h); 109 nM in the assay with MB231 Breast cells (Homo sapiens, 72 h); 75.5 nM in the assay with FaDu Head/neck cells (Homo sapiens, FaDu, 72 h); 76.9 nM in the assay on H460 LCLC cells (Homo sapiens, NCI-H460, 72 h); 26.6 nM with H69 SCLC cells (Homo sapiens, 72 h). The half-maximal effective concentration (EC50) in the assay on HT29 Colon cells (Homo sapiens, HT-29, 72 h) came out at 60 nM; with H929 Myeloma cells (Homo sapiens, NCI-H929, 72 h), 89.6 nM; in the assay on A549 NSCLC cells (Homo sapiens, A549, 72 h), 31.3 nM.
For `CC(=O)O[C@H]1C(=O)[C@@]2(C)[C@H]([C@H](OC(=O)c3ccccc3)[C@]3(O)C[C@H](OC(=O)[C@H](O)[C@@H](NC(=O)c4ccccc4)c4ccccc4)C(C)=C1C3(C)C)[C@]1(OC(C)=O)CO[C@@H]1C[C@@H]2O` [Paclitaxel, paclitaxel], the “growth inhibition of the tumor” value in assay [2] is on record as 85%.
